Assay results: PubChem BioAssay AID330 (DTP/NCI, 2004)
“And” between values parts separate entries of the source, which are not always exact repeats. Equal entries are not always repeated. Inconclusive results and toxic doses are left out.

System: P388 leukemia ip, CD2F1 mice, survival T/C
Assay: NCI In Vivo Anticancer Drug Screen. Data for tumor model P388 Leukemia (intraperitoneal) in CD2F1 (CDF1) mice
Conditions: endpoint: median survival time, higher = longer survival
Summary of the method: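 Mice carrying the transplanted tumor received test compound or vehicle. Survival was recorded in each group, and the value is the treated-group measurement divided by that of the vehicle-treated control group.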

[1] = dose: 50.0 mg/kg/injection, schedule: Q01DX005 (ip), vehicle: saline with Tween-80
[2] = dose: 100.0 mg/kg/injection, schedule: Q01DX005 (ip), vehicle: saline with Tween-80
[3] = dose: 200.0 mg/kg/injection, schedule: Q01DX005 (ip), vehicle: saline with Tween-80
[4] = dose: 12.5 mg/kg/injection, schedule: Q01DX009 (ip), vehicle: Klucel (hydroxypropylcellulose) (HPC)
[5] = dose: 25.0 mg/kg/injection, schedule: Q01DX009 (ip), vehicle: Klucel (hydroxypropylcellulose) (HPC)
[6] = dose: 100.0 mg/kg/injection, schedule: Q01DX009 (ip), vehicle: saline with Tween-80
[7] = dose: 50.0 mg/kg/injection, schedule: Q01DX009 (ip), vehicle: saline
[8] = dose: 100.0 mg/kg/injection, schedule: Q01DX009 (ip), vehicle: saline
[9] = dose: 200.0 mg/kg/injection, schedule: Q01DX009 (ip), vehicle: saline
[10] = dose: 60.0 mg/kg/injection, schedule: Q01DX005 (ip), vehicle: saline with Tween-80
[11] = dose: 120.0 mg/kg/injection, schedule: Q01DX005 (ip), vehicle: saline with Tween-80
[12] = dose: 240.0 mg/kg/injection, schedule: Q01DX005 (ip), vehicle: saline with Tween-80
[13] = dose: 50.0 mg/kg/injection, schedule: Q01DX005 (ip), vehicle: Klucel (hydroxypropylcellulose) (HPC)
[14] = dose: 100.0 mg/kg/injection, schedule: Q01DX005 (ip), vehicle: Klucel (hydroxypropylcellulose) (HPC)
[15] = dose: 200.0 mg/kg/injection, schedule: Q01DX005 (ip), vehicle: Klucel (hydroxypropylcellulose) (HPC)
[16] = dose: 6.25 mg/kg/injection, schedule: Q01DX009 (ip), vehicle: Klucel (hydroxypropylcellulose) (HPC)

O=C1CS(=O)(=O)C(c2ccccc2Cl)N1N1C(=O)CS(=O)(=O)C1c1ccccc1Cl (stereo not given)
T/C [1]: 96 % of control
T/C [2]: 90 % of control
T/C [3]: 89 % of control

C=CCc1cc(C(CC)C(CC)c2ccc(OCCN(CC)CC)c(CC=C)c2)ccc1OCCN(CC)CC (stereo not given)
T/C [1]: 95 % of control
T/C [2]: 98 % of control
T/C [3]: 101 % of control

N/C(=N\N=C\c1cccnc1)SCCCCBr
T/C (dose: 0.78 mg/kg/injection, schedule: Q01DX001 (ip), vehicle: saline): 100 % of control
T/C (dose: 0.78 mg/kg/injection, schedule: Q01DX009 (ip), vehicle: saline): 110 % of control
T/C (dose: 1.56 mg/kg/injection, schedule: Q01DX001 (ip), vehicle: saline): 101 % of control and 110 % of control
T/C (dose: 3.12 mg/kg/injection, schedule: Q01DX001 (ip), vehicle: saline): 110 % of control

CC#CC#C/C(=C/C=CC(=O)OC)SC
T/C [4]: 110 % of control
T/C [5]: 106 % of control
T/C (dose: 50.0 mg/kg/injection, schedule: Q01DX009 (ip), vehicle: Klucel (hydroxypropylcellulose) (HPC)): 101 % of control
T/C (dose: 100.0 mg/kg/injection, schedule: Q01DX009 (ip), vehicle: Klucel (hydroxypropylcellulose) (HPC)): 104 % of control

O=S(O)Cc1ccccc1CSSSCc1ccccc1CS(=O)O
T/C (dose: 25.0 mg/kg/injection, schedule: Q01DX005 (ip), vehicle: saline): 114 % of control
T/C (dose: 50.0 mg/kg/injection, schedule: Q01DX005 (ip), vehicle: saline): 114 % of control
T/C (dose: 100.0 mg/kg/injection, schedule: Q01DX005 (ip), vehicle: saline): 114 % of control
T/C (dose: 200.0 mg/kg/injection, schedule: Q01DX005 (ip), vehicle: saline): 112 % of control

O=C(CCCl)N/N=C/c1ccccc1
T/C (dose: 2.5 mg/kg/injection, schedule: Q01DX009 (ip), vehicle: saline): 104 % of control
T/C (dose: 5.0 mg/kg/injection, schedule: Q01DX009 (ip), vehicle: saline): 98 % of control and 101 % of control
T/C (dose: 10.0 mg/kg/injection, schedule: Q01DX009 (ip), vehicle: saline): 114 % of control and 115 % of control

Nc1cc(=O)[nH]c(=S)[nH]1.[Pd]
T/C (dose: 12.5 mg/kg/injection, schedule: Q01DX009 (ip), vehicle: distilled water + Tween-80): 108 % of control
T/C (dose: 25.0 mg/kg/injection, schedule: Q01DX009 (ip), vehicle: distilled water + Tween-80): 97 % of control
T/C (dose: 50.0 mg/kg/injection, schedule: Q01DX009 (ip), vehicle: distilled water + Tween-80): 100 % of control
T/C (dose: 100.0 mg/kg/injection, schedule: Q01DX009 (ip), vehicle: distilled water + Tween-80): 95 % of control
T/C (dose: 200.0 mg/kg/injection, schedule: Q01DX009 (ip), vehicle: distilled water + Tween-80): 105 % of control

N#CN=[N+]([O-])c1cccc(Br)c1
T/C (dose: 6.25 mg/kg/injection, schedule: Q04DX003 (ip), vehicle: Klucel (hydroxypropylcellulose) (HPC)): 102 % of control
T/C (dose: 12.5 mg/kg/injection, schedule: Q04DX003 (ip), vehicle: Klucel (hydroxypropylcellulose) (HPC)): 101 % of control
T/C (dose: 25.0 mg/kg/injection, schedule: Q04DX003 (ip), vehicle: Klucel (hydroxypropylcellulose) (HPC)): 105 % of control
T/C (dose: 50.0 mg/kg/injection, schedule: Q04DX003 (ip), vehicle: Klucel (hydroxypropylcellulose) (HPC)): 100 % of control

N#Cc1ccc(C(N)=O)c(C(N)=O)c1
T/C [1]: 98 % of control
T/C [2]: 102 % of control
T/C [3]: 93 % of control

CCOc1cc(CN2CCN(CCO)CC2)c(O)c(CN2CCN(CCO)CC2)c1
T/C (dose: 60.0 mg/kg/injection, schedule: Q01DX005 (ip), vehicle: water): 97 % of control
T/C (dose: 120.0 mg/kg/injection, schedule: Q01DX005 (ip), vehicle: water): 103 % of control
T/C (dose: 240.0 mg/kg/injection, schedule: Q01DX005 (ip), vehicle: water): 104 % of control

Cc1ccc2c(c1)-c1nc(N)ncc1C(O)O2 (stereo not given)
T/C (dose: 100.0 mg/kg/injection, schedule: Q04DX003 (ip), vehicle: saline): 110 % of control
T/C (dose: 200.0 mg/kg/injection, schedule: Q04DX003 (ip), vehicle: saline): 96 % of control
T/C (dose: 400.0 mg/kg/injection, schedule: Q04DX003 (ip), vehicle: saline): 100 % of control

Cc1ccc(S(=O)(=O)Nc2cccc3c(NS(=O)(=O)c4ccc(C)cc4)cccc23)cc1
T/C [6]: 100 % of control
T/C (dose: 100.0 mg/kg/injection, schedule: Q04DX003 (ip), vehicle: saline with Tween-80): 100 % of control
T/C (dose: 200.0 mg/kg/injection, schedule: Q01DX009 (ip), vehicle: saline with Tween-80): 95 % of control
T/C (dose: 200.0 mg/kg/injection, schedule: Q04DX003 (ip), vehicle: saline with Tween-80): 90 % of control
T/C (dose: 400.0 mg/kg/injection, schedule: Q04DX003 (ip), vehicle: saline with Tween-80): 100 % of control

NCCc1ccc(O)c(O)c1
T/C (dose: 1.5 mg/kg/injection, schedule: Q01DX009 (ip), vehicle: saline): 100 % of control and 96 % of control
T/C (dose: 15.0 mg/kg/injection, schedule: Q01DX009 (ip), vehicle: saline): 99 % of control and 100 % of control
T/C (dose: 25.0 mg/kg/injection, schedule: Q01DX009 (ip), vehicle: saline): 108 % of control
T/C (dose: 50.0 mg/kg/injection, schedule: Q01DX009 (ip), vehicle: other): 101 % of control
T/C [7]: 107 % of control and 108 % of control
T/C (dose: 100.0 mg/kg/injection, schedule: Q01DX009 (ip), vehicle: other): 83 % of control
T/C [8]: 101 % of control and 108 % of control
T/C (dose: 150.0 mg/kg/injection, schedule: Q01DX009 (ip), vehicle: saline): 123 % of control
T/C (dose: 200.0 mg/kg/injection, schedule: Q01DX009 (ip), vehicle: other): 90 % of control
T/C [9]: 112 % of control and 115 % of control
T/C (dose: 300.0 mg/kg/injection, schedule: Q01DX009 (ip), vehicle: saline): 92 % of control
T/C (dose: 400.0 mg/kg/injection, schedule: Q01DX009 (ip), vehicle: other): 83 % of control
T/C (dose: 400.0 mg/kg/injection, schedule: Q01DX009 (ip), vehicle: saline): 99 % of control and 121 % of control
T/C (dose: 600.0 mg/kg/injection, schedule: Q01DX009 (ip), vehicle: saline): 153 % of control

CC(C)(C)N=C(CCNC1CCCCC1)Nc1c(Cl)cccc1Cl
T/C (dose: 50.0 mg/kg/injection, schedule: Q01DX009 (ip), vehicle: saline with Tween-80): 100 % of control
T/C [6]: 106 % of control

CC1CCCC(C)N1C(=O)c1ccccc1 (stereo not given)
T/C [10]: 98 % of control
T/C [11]: 97 % of control
T/C [12]: 96 % of control

C/[N+]([O-])=C/c1ncc([N+](=O)[O-])n1CCO
T/C [7]: 102 % of control
T/C [8]: 107 % of control
T/C [9]: 98 % of control

CC1=CC(C)(C)N=C2SC(COc3ccccc3)=NN12
T/C (dose: 25.0 mg/kg/injection, schedule: Q01DX005 (ip), vehicle: Klucel (hydroxypropylcellulose) (HPC)): 116 % of control
T/C [13]: 109 % of control
T/C [14]: 107 % of control
T/C [15]: 104 % of control

COc1ccc(C(Cc2cc(OC)c(OC)cc2Br)NC=O)cc1OC (stereo not given)
T/C [1]: 89 % of control
T/C [2]: 90 % of control
T/C [3]: 91 % of control

O=C(Nc1ccc(F)cc1)ON=C1CCCCC1
T/C [10]: 92 % of control
T/C [11]: 97 % of control
T/C [12]: 90 % of control

O=C(O)CC(=O)O.[Cu+2].[NH-]C1CCCC2CCC[N-]C12 (stereo not given)
T/C (dose: 5.0 mg/kg/injection, schedule: Q04DX002 (ip), vehicle: saline): 93 % of control
T/C (dose: 10.0 mg/kg/injection, schedule: Q04DX002 (ip), vehicle: saline): 108 % of control

N#CSc1ccc2nc(NC(NC(=O)c3ccccc3)C(Cl)(Cl)Cl)sc2c1 (stereo not given)
T/C [16]: 102 % of control
T/C [4]: 108 % of control
T/C [5]: 101 % of control

CCCN(CCC)c1nnc([N+](=O)[O-])s1
T/C (dose: 50.0 mg/kg/injection, schedule: Q01DX001 (ip), vehicle: other): 104 % of control
T/C (dose: 100.0 mg/kg/injection, schedule: Q01DX001 (ip), vehicle: other): 100 % of control
T/C (dose: 200.0 mg/kg/injection, schedule: Q01DX001 (ip), vehicle: other): 104 % of control

C=C1C(=O)OC2/C=C(\C)CC/C=C(/C=O)C(OC)C(OC(=O)C(C)C)C12 (stereo not given)
T/C [16]: 106 % of control
T/C [4]: 97 % of control
T/C [5]: 100 % of control

CN(C)C1c2cc(Br)ccc2-c2ccc(Br)cc21
T/C [13]: 95 % of control
T/C [14]: 105 % of control
T/C [15]: 110 % of control
